Data from patent US20100069395A1, “Pyrazolo[1,5-a]pyrimidine-3-carboxylic acid compounds as protein kinase inhibitors” (priority 2006, published 2010).

Structure (SMILES) | melting point [°C]
Cc1ccc(C(=O)Nc2cccc(C(F)(F)F)c2)cc1NC(=O)c1cnc2ccnn2c1 [Example 1, Pyrazolo[1,5-a]pyrimidine-6-carboxylic acid[2-methyl-5-(3-trifluoromethyl-phenylcarbamoyl)-phenyl]-amide] | 222 to 224
Cc1ccc(NC(=O)c2cccc(C(F)(F)F)c2)cc1NC(=O)c1cnc2ccnn2c1 [Example 2, Pyrazolo[1,5-a]pyrimidine-6-carboxylic acid[2-methyl-5-(3-trifluoromethyl-benzoylamino)-phenyl]-amide] | 239 to 241
Cc1ccc(C(=O)Nc2cccc(C(F)(F)F)c2)cc1NC(=O)C1=CNc2ccnn2C1 [Example 3, 4,7-Dihydro-pyrazolo[1,5-a]pyrimidine-6-carboxylic acid [2-methyl-5-(3-trifluoromethyl-phenylcarbamoyl)-phenyl]-amide] | 259 to 263
Cc1cccc(C)c1NC(=O)c1cnc2c(-c3cccc(N4CCN(C)CC4)c3)cnn2c1 [Example 4, 3-[3-(4-Methyl-piperazin-1-yl)-phenyl]-pyrazolo[1,5-a]pyrimidine-6-carboxylic acid(2,6-dimethyl-phenyl)-amide] | 227 to 229
COc1ccc(-c2cnn3cc(C(=O)Nc4c(C)cccc4C)cnc23)cc1OC [Example 5, 3-(3,4-Dimethoxy-phenyl)-pyrazolo[1,5-a]pyrimidine-6-carboxylic acid (2,6-dimethylphenyl)-amide] | 230 to 232
Cc1ccc(NC(=O)c2ccc(F)c(C(F)(F)F)c2)cc1NC(=O)c1cnc2ccnn2c1 [Example 6, Pyrazolo[1,5-a]pyrimidine-6-carboxylic acid[5-(4-fluoro-3-trifluoromthyl-benzoylamino)-2-methyl-phenyl]-amide] | 267 to 269
COc1ccc(C(=O)Nc2ccc(C)c(NC(=O)c3cnc4ccnn4c3)c2)cc1C(F)(F)F [Example 7, Pyrazolo[1,5-a]pyrimidine-6-carboxylic acid[5-(4-methoxy-3-trifluoromethyl-benzoylamino)-2-methyl-phenyl]-amide] | 256 to 258
